Assays:
[1] = Changes over time of Z to E transition by 19F NMR; type: physicochemical; conditions: light 525 nm, 100 mM in DMSO
From the text: We can observe that for electromagnetic radiation in the range of wavelengths 390 nm to 610 nm, transitions from E to Z of about 0–76% are obtained. The best results for all compounds are in visible wavelengths 505 nm or 525 nm (30.59–75.44%). From analyzing Figure 2 we can draw the following conclusions: all synthesized compounds undergo switching under visible light (this is important because UV radiation can damage the DNA of cells, inhibiting replication and, as a result, preventing cell division). For the 2,6-difluoro substituents (17i), (17j), (17k), and (17l) with values of 74.84%, 73.2%, 74.39%, and 75.44%, respectively, the largest share of the Z configuration is at (525 nm) and, for the rest of (17a), (17b), (17c), (17e), (17f), and (17g), it is in range of 30.57–47.13% at 505 nm. […] Multiple cycles of photoreversible switching under alternating green and blue light irradiation, with no significant photobleaching or degradation, confirmed the repeatable and robust photochromic conversion of the synthesized azobenzenes (Figure 2b). Then we measured changes over time (transitions from Z to E, upon irradiation with 505 nm for (17a–17c) and (17e–17g), and 525 nm for (17i–17l) compounds (Figure 3, and see Section S4.3 in Supplementary Materials).

[2] = UV–VIS spectra of E/Z isomers in DMSO; type: physicochemical
Protocol: For this purpose, the UV–VIS spectra were measured for all synthesized hybrids (17a–17l) at concentrations from 20 to 500 µM in dimethyl sulfoxide (DMSO) in light at λ 505 nm and for (17a–17c), (17e–17g), and (17i–17l) at λ 525 nm, respectively, as detailed in Table 1 (see Section S4.4 in Supplementary Materials).

BJ fibroblasts = assay: Cell cycle analysis by flow cytometry, BJ fibroblasts; type: cell-based, human; conditions: Z conformer, concentration not given
Protocol: The BJ or PC-3 cells were treated as described previously, with the exception that 0.15 × 10^6 cells per well were seeded in 6-well plates. After 24 h of treatment, cells were harvested by trypsinization (Biowest, Nuaillé, France, L0931), washed twice, resuspended in PBS, and added to cold 70% ethanol for overnight fixation at −20 °C. Subsequently, cells were centrifuged and resuspended in PBS containing 5 µg/mL of propidium iodide in PBS (Sigma-Aldrich, St. Louis, MO, USA, 4170), 0.1% Triton X-100, and 10 µg/mL of DNAse-free RNAse (A&A Biotechnology, Gdansk, Poland, 1006-10) in the dark for 4 h at 37 °C. FACS analysis was performed using a FACSCanto II flow cytometer and FACSDiva, version 9.0 software (BD Biosciences, San Jose, CA, USA). Flow rate was set to about 1000 events/cells per second. Signals from at least 10,000 events per sample were captured. The percentages of PC-3 cells in cell cycle phases (G0/G1, S, and G2/M) were determined using ModFit LT 4.1.7 (Verity Software House, Topsham, ME, USA).

PC-3 cells = assay: MTS cell proliferation assay, PC-3; type: cell-based, human; conditions: for IC50: Homo sapiens
Protocol: Human BJ fibroblasts (American Type Cell Culture Collection, Manassas, VA, USA, CRL-2522) and human prostate cancer cell line PC-3 (American Type Cell Culture Collection, Manassas, VA, USA, CRL-1435), derived from bone metastases, were routinely grown in […]) Medium (ThermoFisher, Waltham, MA, USA, 21127-022) and supplemented with heat-inactivated 10% Fetal Bovine Serum (Biowest, France, […]) and 1% antibiotic solution (Biowest, Nuaillé, France, L0022), in a humidified 5% CO2 atmosphere at 37 °C. Cells were used between 3 and 20 passages. The 96-well plates were prepared by seeding 5 × 10^3 or 2.5 × 10^3 cells per well, for 24 and 48 h treatments, respectively, with at least five technical and two biological repeats. […] The cells were treated with either the Z conformer of 17j, with continuous illumination with 525 nm light, or the E conformer. The Z conformer was prepared by illuminating its DMSO solution with 525 nm light overnight. The cell proliferation was analyzed with CellTiter Aqueous One Solution Cell Proliferation MTS (3-(4,5-dimethylthiazol-2-yl)-5-(3-carboxymethoxyphenyl)-2-(4-sulfophenyl)-2H-tetrazolium) Assay (Promega, Madison, WI, USA, G5430) after 24 or 48 h of treatment. The absorbance was measured at 490 and 670 nm with FLUOStar Omega plate reader (BMG LABTECH GmbH, Ortenberg, Germany). The statistical analysis was performed within R 4.5.1 project. […] The log-logistic four parametric model (4PL), with the lower limit boundary set to 0 and group fitting, was used, as available in the drc package, to fit cell proliferation data. […] The assessment metrics for model goodness of fit were performed with functions available in the drc package and with custom ones. When appropriate, the delta method was applied to obtain error of central tendency. To assess the goodness of fit for each of the biological replicates, deviance R^2 (DR^2) was calculated and assessed. […] The DR^2 was calculated according to the following Equation: 1 - (Dres/Dnull), where Dres-residual deviance and Dnull-null deviance (deviance of the model with mean as a predicted value). The null hypothesis was assessed with the two-way ANOVA with Tukey's post hoc test for multiple comparisons or with the two-way t-test when only two groups were compared. The differences in the cell cycle percentages were assessed with the two-way ANOVA with Tukey's post hoc test.

For `COc1cc(/C=C/C(=O)c2cccc(/N=N/c3c(F)cccc3F)c2)cc(OC)c1` [Compound 17j], the “Z isomer, changes over time” value ([1]; 0 h) was 73.2%, the “Z isomer, changes over time” value ([1]; 1 h) was 72.55% and the “Z isomer, changes over time” value ([1]; 2 h) was 71.89%. The “Z isomer, changes over time” value ([1]; 3 h) was 71.23%, the “Z isomer, changes over time” value ([1]; 4 h) was 71% and the “Z isomer, changes over time” value ([1]; 5 h) was 70.01%. The “Z isomer, changes over time” value ([1]; 6 h) was 69.58%, the “Z isomer, changes over time” value ([1]; 7 h) was 69.12% and the “Z isomer, changes over time” value ([1]; 8 h) was 67.9%. For the same compound, the “Δ (Z to E change 0 h to 8 h)” value [1] was 5.3%, the “εmax (n→π*)” value ([2]; E isomer) was 922 dm^3·mol^−1·cm^−1 and the “λmax n→π* (E)” value ([2]; E isomer) was 448.3 nm. For the same compound, the “εmax (n→π*)” value ([2]; Z isomer) was 1130 dm^3·mol^−1·cm^−1, the “λmax n→π* (Z)” value ([2]; Z isomer) was 417.4 nm and the “Δ λmax n→π*” value ([2]; between E and Z isomers) was 30.9 nm. For the same compound, the “cells undergoing the G0/G1 phase” value (BJ fibroblasts; decrease from 86.4) was 51.5%, the “cells in the S phase” value (BJ fibroblasts; increase from 0.4) was 8% and the “cells in the G2/M phase” value (BJ fibroblasts; increase from 11.9) was 15.6%. The “IC50 difference between PC-3 and BJ cells” value (PC-3 cells; E conformer) was 2.2 fold, the “normalized asymptote (normalized limit)” value (PC-3 cells; E conformer, 24 h) was 50.0 ± 9.9% and the “normalized asymptote (normalized limit)” value (PC-3 cells; E conformer, 48 h) was 15.0 ± 0.2%. For the same compound, the IC50 (PC-3 cells; PC-3, 24 h, E conformer, 24 h incubation) was 14.6 ± 1 µM, the IC50 (PC-3 cells; PC-3, 24 h, Z conformer, 525 nm illumination, 24 h treatment) was 12 ± 4.42 µM and the IC50 (PC-3 cells; PC-3, 48 h, E conformer, 48 h incubation) was 5.8 ± 0.8 µM. The IC50 (PC-3 cells; PC-3, 48 h, Z conformer, 525 nm illumination, 48 h treatment) was 4.75 ± 1 µM, the “normalized asymptote (ratio of lower to upper asymptote)” value (PC-3 cells; Z conformer, 24 h) was 44.9 ± 3.7% and the “normalized asymptote (ratio of lower to upper asymptote)” value (PC-3 cells; Z conformer, 48 h) was 0.9 ± 0.9%.
